One assay concerns the target T1, purified LARP6 protein (Homo sapiens, UniProt Q9BRS8).
T1 sequence (Q9BRS8 1-491): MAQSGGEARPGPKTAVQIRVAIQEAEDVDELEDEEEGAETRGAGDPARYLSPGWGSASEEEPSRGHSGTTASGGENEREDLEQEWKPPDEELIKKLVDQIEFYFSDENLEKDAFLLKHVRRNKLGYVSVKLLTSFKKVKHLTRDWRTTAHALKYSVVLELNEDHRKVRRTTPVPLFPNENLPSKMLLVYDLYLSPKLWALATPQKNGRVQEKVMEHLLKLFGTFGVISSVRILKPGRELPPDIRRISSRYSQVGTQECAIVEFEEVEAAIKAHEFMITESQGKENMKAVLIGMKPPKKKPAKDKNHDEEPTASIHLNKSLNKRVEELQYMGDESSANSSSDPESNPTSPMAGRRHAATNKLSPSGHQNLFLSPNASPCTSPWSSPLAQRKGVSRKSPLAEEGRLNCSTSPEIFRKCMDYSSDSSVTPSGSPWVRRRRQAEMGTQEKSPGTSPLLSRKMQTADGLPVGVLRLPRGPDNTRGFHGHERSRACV
Kind of assay: Affinity binding of commercial cefixime preparation to purified LARP6, elution and mass spectrometry. The conditions noted are these: FIG. 11. The source says: The component with antifibrotic activity in the commercial cefixime preparations was identified by affinity binding of the commercial cefixime preparations to the purified LARP6 protein, followed by elution of the bound molecular species and their identification by mass spectrometry. […] This component has two diastereomer isoforms which were present in miniscule amounts in the commercial cefixime preparations, but both were sequestered by LARP6 protein.

The next assay deals with T2, LARP6/5′SL RNA complex (Homo sapiens, UniProt Q9BRS8).
T2 sequence (Q9BRS8 1-491): T1 sequence (Q9BRS8 1-491)
Kind of assay: Gel mobility shift: purified/recombinant LARP6 binding to 5′ stem-loop RNA in vitro. To be noted: recombinant LARP6, electrophoretic mobility shift assay, FIG. 12. As to the method:
Next, the inhibition of LARP6 binding was tested by gel mobility shift experiments in which binding of purified LARP6 to 5′SL RNA was resolved as protein/RNA complex in gel electrophoresis.
To assess the efficacy of CID 71314610 in inhibiting LARP6 binding to its target sequence, the 5′ stem-loop of type I collagen mRNAs, recombinant LARP6 protein was added to 5′ stem-loop RNA in vitro and CID 71314610 was added at nano-M concentrations to the reaction. The formation of LARP6/RNA complex was analyzed by electrophoretic mobility shift assay.
In general terms: In EMSA bound probe runs differently from free probe, usually more slowly.

Assay [1] concerns type I collagen secretion by human lung fibroblasts. Kind of assay: Type I collagen secretion by human lung fibroblasts (western blot of medium). Type of assay: cell-based. The protocol:
Based on the ability of the cefixime preparation 1 component to inhibit LARP6/5′SL interaction, cefixime preparation 2 was tested to inhibit type 1 collagen production by human lung fibroblasts. The cells were treated with cefixime preparation 2 in a range of concentrations for 18 hours. The cellular medium was changed and the accumulation of type I collagen into the fresh medium was measured after 3 hours. This provided an estimate of the rate by which the cells can secrete type I collagen. […] At 50 μM, secretion of type I collagen was reduced by about 50%. At 100 μM it was reduced by about 80%. […] This provided evidence that a component of commercial cefixime preparations can act as antifibrotic drugs. Human lung fibroblasts are responsible for lung fibrosis. These cells were cultured in vitro and CID 71314610 was added to the cellular medium at 0.5-50 μM. After overnight incubation the medium was changed and secretion of type I collagen into the fresh medium was analyzed by western blot. The rate of collagen secretion into the medium is a measure of the profibrotic activity of cells. Type I collagen is composed of two polypeptides, α1(I) and α2(I), so both were analyzed. […] In three independent experiments the expression of α1(I) and α2(I) polypeptides was normalized to the expression of fibronectin and plotted as function of CID 71314610 concentration (FIG. 13, bottom panel).

Assay [2] deals with fibronectin secretion by human lung fibroblasts. Nature of the assay: Fibronectin secretion by human lung fibroblasts (western blot, specificity control). The format is cell-based. To be noted: same treatment as collagen read-out. The protocol: At 50 μM, secretion of type I collagen was reduced by about 50%. At 100 μM it was reduced by about 80%. […] This provided evidence that a component of commercial cefixime preparations can act as antifibrotic drugs.
Human lung fibroblasts are responsible for lung fibrosis. These cells were cultured in vitro and CID 71314610 was added to the cellular medium at 0.5-50 μM. After overnight incubation the medium was changed and secretion of type I collagen into the fresh medium was analyzed by western blot. The rate of collagen secretion into the medium is a measure of the profibrotic activity of cells. Type I collagen is composed of two polypeptides, α1(I) and α2(I), so both were analyzed. […] In three independent experiments the expression of α1(I) and α2(I) polypeptides was normalized to the expression of fibronectin and plotted as function of CID 71314610 concentration (FIG. 13, bottom panel).
For orientation: A western blot detects proteins with antibodies after separation by electrophoresis.

Take `CC1OC(=O)C2=C1CS[C@H](CNC(=O)/C(=N\OCC(=O)O)c1csc(N)n1)N2` (mixture of isomers) [CID 71314610, 2-[[[(Z)-1-(2-Aminothiazol-4-yl)-2-[[[(2R,5RS)-5-methyl-7-oxo-1,2,5,7-tetrahydro-4H-furo[3,4-d][1,3]thiazin-2-yl]methyl]amino]-2-oxoethylidene]amino]oxy]acetic acid]: the “fraction of input present in cefixime preparation bound by LARP6” value on purified LARP6 protein (one diastereomer) was determined as 50%; at purified LARP6 protein (the other diastereomer) it was 100%. Besides, the results for the “dissociation of LARP6/RNA complexes” value on LARP6/5′SL RNA complex (50 nM) and at LARP6/5′SL RNA complex (100 nM) were 50% and roughly 90%, respectively. Moreover, in assay [1] (0.5-50 μM, overnight incubation, FIG. 13 upper panel), the “secretion of α1(I) and α2(I) collagen polypeptides” value was “inhibited by CID 71314610 in the concentration dependent manner”. The “concentration with highly statistically significant inhibition of both polypeptides comprising type I collagen” value in assay [1] (three independent experiments, normalized to fibronectin, FIG. 13 bottom panel) worked out at 5 µM. For the same compound, the secretion of fibronectin entry in assay [2] is “not affected”.

Values taken from patent US12257256B2, “Compositions and methods for inhibiting type 1 collagen production” (Florida State University Research Foundation, Inc., priority 2020, dated 2025).
